The subject of assay [1] is Akt^Ser473 phosphorylation. In words: In vivo target modulation (PK/PD) in A2780 xenograft tumors (Biological Method 3). Details: species or system nu/nu mice. An excerpt:
A2780 ovarian cancer cells obtained from George Coukos (Fox Chase Cancer Center, University of Pennsylvania, Philadelphia, Pa.) were maintained in DMEM (Invitrogen, Inc.) supplemented with 10% heat-inactivated fetal bovine serum with 1% glutamine. Cells were propagated as recommended by the Dr. Coukos and colleagues. Female nu/nu mice (8-12 weeks old, 20-25 g, Charles River) were used for all in vivo pharmacology studies. The mice were housed and maintained in accordance with state and federal guidelines for the humane treatment and care of laboratory animals and received food and water ad libitum. Cancer cells were harvested from mid-log phase cultures using trypsin-EDTA (Invitrogen, Inc.). […] Tumor volumes were determined by using StudyDirector software.
For PK/PD dose-dependent studies, tumor-bearing mice were given a single oral dose of compound at different concentrations (10, 30, 60 and 100 mg/kg or vehicle) and tumors were resected at 10 hr or 24 hr after dosing. […] Supernatants were taken after centrifugation of tumor lysates at 300×g for 10 min at 4° C. and the protein concentration in each supernatant was determined by BCA (BioRad). […] The density of the positive band on the X-ray film was scanned and the target modulation for each compound was expressed as percentage inhibition by each compound compared to vehicle treatment. […]

Assay [2] deals with A2780 tumor xenograft. In words: Efficacy study in A2780 ovarian cancer xenograft model (Biological Method 3). The assay is classed as in vivo, nu/nu mice. As to conditions: oral. An excerpt: A2780 ovarian cancer cells obtained from George Coukos (Fox Chase Cancer Center, University of Pennsylvania, Philadelphia, Pa.) were maintained in DMEM (Invitrogen, Inc.) supplemented with 10% heat-inactivated fetal bovine serum with 1% glutamine. Cells were propagated as recommended by the Dr. Coukos and colleagues. Female nu/nu mice (8-12 weeks old, 20-25 g, Charles River) were used for all in vivo pharmacology studies. The mice were housed and maintained in accordance with state and federal guidelines for the humane treatment and care of laboratory animals and received food and water ad libitum. Cancer cells were harvested from mid-log phase cultures using trypsin-EDTA (Invitrogen, Inc.). Five million cells were subcutaneously injected into the right flank of each mouse. Compound treatment was initiated when tumor size reached to 300-400 mm^3 for PK/PD studies and 200-300 mm^3 for efficacy studies. All compound treatment was administrated orally. Tumor volumes were determined by using StudyDirector software.
For efficacy studies, A2780 cancer cells (5×10^6 in 100 μl of DMEM culture medium) were injected subcutaneously into the right flank of each nu/nu mouse. […] Tumor growth and animal body weight was measured twice weekly with daily clinical observation to monitor potential toxicities related to the treatment. […]

Take `Nc1cc(C(F)(F)F)c(-c2cc(N3CCOCC3)nc(N3CCOCC3)n2)cn1` [Compound 10]: the “Duration of inhibition of Akt^Ser473 (>50% inhibition)” value in assay [1] is above 10 h. The Antitumor activity entry in assay [2] (b.i.d., 30 mg/kg (FIG. 5)) was “significant antitumor activity”. For the same compound, the Tumor growth inhibition result in assay [2] (daily, 100 mg/kg) is “tumor growth stasis”.

For the compound `Nc1ncc(-c2cc(OC3CCOCC3)nc(N3CCOCC3)n2)c(C(F)(F)F)n1` [Compound 66], the “Duration of inhibition of Akt^Ser473 (>50% inhibition)” value in assay [1] is above 10 h.

For the origin of these results see patent publication US8563549B2, “Pyrimidine derivatives used as PI-3 kinase inhibitors” (Novartis AG, priority 2006, dated 2013).
